# Data published in PMC6884456, “Supreme activity of gramicidin S against resistant, persistent and biofilm cells of staphylococci and enterococci” (Scientific Reports, 2019).
# Where a SMILES comes first, the peptide text is derived from it. Where no end group is shown, it is not given here. [ ]: non-standard residue; d: D form. Orn = NCCC[C@H](N)C(=O)O
# Key:
# S. aureus DSM 1104 SCV [1] = type: cell-based, Staphylococcus aureus; details: for MIC: S. aureus DSM 1104 SCV, Mueller-Hinton broth, 22 h + 2 h resazurin, 37 °C, 5% CO2, three parallels
# Description: For the determination of MIC, the standard broth microdilution procedure[45] was used with a slight modification[29]. Since the peptide stock solutions were prepared in 50% ethanol, the first rows of the 96-well microtiter plates were filled with 50 µl of 2 × concentrated Mueller-Hinton broth to reestablish the normal broth concentration after the addition of 50 µl peptide solutions. The MIC was determined as the lowest concentration that inhibited bacterial growth, judging from bacterial respiration in three parallels for each antibiotic. After incubation of the plates for 22 hours, the redox indicator resazurin (Sigma-Aldrich) was added to the wells (20 µl, 80 µM). The plates were incubated another 2 hours at 37 °C and 5% CO2. Respiration was determined as the difference in the absorption at 570 nm to 600 nm, using a microplate reader FLASHScan 550 (Analytik Jena).
# S. aureus MRSA538 SCV = details: Mueller-Hinton broth, 22 h + 2 h resazurin, 37 °C, 5% CO2, three parallels
# Description: (§1) For the determination of MIC, the standard broth microdilution procedure[45] was used with a slight modification. Since the peptide stock solutions were prepared in 50% ethanol, the first rows of the 96-well microtiter plates were filled with 50 µl of 2 × concentrated Mueller-Hinton broth to reestablish the normal broth concentration after the addition of 50 µl peptide solutions. The MIC was determined as the lowest concentration that inhibited bacterial growth, judging from bacterial respiration in three parallels for each antibiotic. After incubation of the plates for 22 hours, the redox indicator resazurin (Sigma-Aldrich) was added to the wells (20 µl, 80 µM). The plates were incubated another 2 hours at 37 °C and 5% CO2. Respiration was determined as the difference in the absorption at 570 nm to 600 nm, using a microplate reader FLASHScan 550 (Analytik Jena).
# S. aureus MRSA8 SCV [2] = details: Mueller-Hinton broth, 22 h + 2 h resazurin, 37 °C, 5% CO2, three parallels
# Description: as §1
# S. aureus MRSA9 SCV = details: Mueller-Hinton broth, 22 h + 2 h resazurin, 37 °C, 5% CO2, three parallels
# Description: as §1
# S. aureus DSM 1104 [3] = type: cell-based, Staphylococcus aureus; details: DSM 1104
# Description: (§5) MBC was determined directly after the MIC evaluation. The 10 µl samples of all 8 dilution rows in the microtiter plates were spotted on square Mueller-Hinton agar plates and incubated overnight at 37 °C and 5% CO2. The MBC was determined as the concentration at which no bacterial colonies were obtained on the two parallel spotted plates.
# S. aureus DSM 1104 SCV [4] = type: cell-based, Staphylococcus aureus; details: spotted from MIC plates on Mueller-Hinton agar, overnight, no colonies
# Description: MBC was determined directly after the MIC evaluation.
# S. aureus MRSA3 = type: cell-based, Staphylococcus aureus; details: MRSA3
# Description: as §5
# S. aureus MRSA4 = type: cell-based, Staphylococcus aureus; details: MRSA4
# Description: as §5
# S. aureus MRSA9 = type: cell-based, Staphylococcus aureus; details: MRSA9
# Description: as §5
# E. faecalis DSM 2570 [5] = type: cell-based, Enterococcus faecalis; details: DSM 2570
# Description: as §5
# E. faecalis WW4 = type: cell-based, Enterococcus faecalis; details: WW4
# Description: as §5
# E. faecalis WW6 [6] = type: cell-based, Enterococcus faecalis; details: WW6
# Description: as §5
# E. faecalis TRE1 = type: cell-based, Enterococcus faecalis; details: TRE1
# Description: as §5
# E. faecalis TRE2 [7] = type: cell-based, Enterococcus faecalis; details: TRE2
# Description: as §5
# E. faecalis TRE4 = type: cell-based, Enterococcus faecalis; details: TRE4
# Description: as §5
# E. faecium VRE1 = type: cell-based, Enterococcus faecium; details: VRE1
# Description: as §5
# E. faecium VRE2 = type: cell-based, Enterococcus faecium; details: VRE2
# Description: as §5
# S. aureus DSM 1104 SCV [8] = type: cell-based, Staphylococcus aureus; details: value in parentheses
# Description: (§2) This parameter quantifies the ability of the peptides to prevent biofilm outgrowth.
# (§3) After co-incubation with peptides at 37 °C and 5% CO2 without agitation for 24 hours, the planktonic cells were washed, and Crystal violet staining was applied.
# E. faecalis DSM 2570 [9] = details: DSM 2570, 24 h
# Description: as §2, §3
# E. faecalis TRE2 [10] = details: TRE2, 24 h
# Description: as §2, §3
# E. faecalis WW6 [11] = details: WW6, 24 h
# Description: as §2, §3
# S. aureus DSM 1104 [12] = details: DSM 1104, 24 h
# Description: as §2, §3
# S. aureus MRSA8 SCV [13] = details: value in parentheses
# Description: as §2, §3
# [14] = molecular target: human serum albumin (HSA) (Homo sapiens, UniProt P02768); assay: HSA binding, biomimetic chromatography
# Chain of human serum albumin (HSA) (P02768 25-609): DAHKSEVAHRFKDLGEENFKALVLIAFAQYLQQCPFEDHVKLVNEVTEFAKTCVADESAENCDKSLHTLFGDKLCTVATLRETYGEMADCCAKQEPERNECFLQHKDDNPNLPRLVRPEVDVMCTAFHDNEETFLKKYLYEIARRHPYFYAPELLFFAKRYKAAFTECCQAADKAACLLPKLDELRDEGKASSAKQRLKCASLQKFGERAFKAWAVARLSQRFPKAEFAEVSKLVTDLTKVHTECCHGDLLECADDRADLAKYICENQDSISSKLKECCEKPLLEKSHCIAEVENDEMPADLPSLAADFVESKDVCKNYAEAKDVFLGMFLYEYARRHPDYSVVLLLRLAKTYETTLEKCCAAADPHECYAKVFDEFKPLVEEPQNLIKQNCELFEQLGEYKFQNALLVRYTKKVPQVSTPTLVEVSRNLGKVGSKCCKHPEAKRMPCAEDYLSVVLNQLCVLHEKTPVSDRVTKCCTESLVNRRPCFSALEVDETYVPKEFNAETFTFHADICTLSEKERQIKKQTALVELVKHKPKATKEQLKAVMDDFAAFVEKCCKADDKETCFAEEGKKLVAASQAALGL
# Description: (§4) HPLC was performed on an Agilent 1100 system with an ultraviolet diode array detector. […] Binding measurements were performed using Regis Technologies IAM.PC.DD2 (100 × 4.6 mm), HiChrom Chiralpak-HSA (50 × 3 mm) and HiChrom Chiralpak-AGP (50 × 3 mm) columns. […] Retention times were converted to log k and % binding, using calibration routines described in[72].
# [15] = test system: α1-acid glycoprotein (AGP); assay: AGP binding, biomimetic chromatography
# Description: as §4
# physchem = assay: physchem
# Description: as §4
# Danio rerio embryos = assay: Acute toxicity in Danio rerio embryos; type: in vivo; details: zebrafish embryos 72 hpf, E3 medium, heart beat; for 1h LD50: 1 hour exposure; for 3h LD50: 3 hours exposure
# Description: Experiments were performed in accordance with the relevant OECD testing guidelines[73] and German animal protection standards. Wild type D. rerio embryos were obtained at the European Zebrafish Resource Center (Karlsruhe). Fertilized eggs (6 hpf) were raised in 4 ml of embryonic medium (E3) at 28 °C until 72 hpf (6-well plate, 20 eggs/well). Embryos were transferred into flat-bottom glass vials (E3, 1 ml, 15–20 embryos/vial). Peptides were added as 20 µl aliquots in 10% dimethyl sulfoxide in serial 2-fold dilutions. Toxicity was expressed as the concentration at which 50% of the embryos were visually observed to die (measured at 1 and 3 hours exposure) by identifying the heart beat.
# human erythrocytes = assay: Haemolysis assay; type: cell-based; details: red cells of human
# Description: Haemolytic activity was determined with a serial 2-fold dilution assay. Citrate phosphate dextrose-stabilized human erythrocyte suspensions were obtained from Karlsruhe Municipal Hospital. […] The mixture was pelleted (13 000 rpm, 10 min, 4 °C), and the absorbance of the supernatant was recorded at 540 nm vs. reaction buffer. The extent of haemolysis was related to the action of 0.1% Triton X-100 (100%).
# enterococci = type: cell-based, Enterococcus faecalis, Enterococcus faecium; details: 22 h
# subtilisin = details: serine protease isolated from B. subtilis; cited from earlier work
# Text: This intrinsic cell-uptake activity has already been explored in eukaryotic cells to specifically target mitochondria with GS derivatives. In the context of prokaryotic cells, together with the ability to bind certain nucleotides and small phosphorylated molecules[29]–[33], GS thus seems to be capable ...
# [16] = test system: S. aureus DSM 1104 SCV biofilms; assay: Regrowth from pregrown biofilms on hydroxyapatite discs; type: cell-based, Staphylococcus aureus; details: 30 h on hydroxyapatite discs, 400 µg/ml, 18 h, regrowth 24 h in Todd-Hewitt broth
# Description: To characterize the viability of the biofilm cells, HAD with pregrown biofilms were exposed for 18 hours to supra-MBIC90 concentrations of the AMP, and - after washing - were placed into fresh TH broth. This procedure serves to determine possible planktonic regrowth from the cells that survived the treatment.
# Biofilms were grown on standardized hydroxyapatite discs (3D Biotek). The discs were placed in 24-well microtiter plates and inoculated with a cell suspension from the overnight stationary culture, grown in Todd-Hewitt broth and diluted to OD550 = 0.2. After 30 hours of growth at 37 °C without agitation, the discs were placed for 18 hours in solutions containing 400 µg/ml of peptides, dissolved in 10% dimethyl sulfoxide and 150 mM sodium phosphate buffer (pH 7.2). For the control experiments and conventional antibiotics, pure sodium phosphate buffer was used. After the treatment, discs were washed with sodium phosphate buffer, placed into 1 ml of Todd-Hewitt broth and incubated at 37 °C with agitation at 200 rpm for 24 hours.
Molecule,MIC (S. aureus DSM 1104 SCV [1]),MIC (S. aureus MRSA8 SCV [2]),MIC (S. aureus MRSA9 SCV),MBC (S. aureus DSM 1104 [3]),MBC (S. aureus MRSA3),MBC (S. aureus MRSA4),MBC (S. aureus MRSA9),MBC (E. faecalis DSM 2570 [5]),MBC (E. faecalis WW4),MBC (E. faecalis WW6 [6]),MBC (E. faecalis TRE1),MBC (E. faecalis TRE2 [7]),MBC (E. faecalis TRE4),MBC (E. faecium VRE1),MBC (E. faecium VRE2),MBIC90 (S. aureus DSM 1104 SCV [8]),MBIC90 (E. faecalis DSM 2570 [9]),MBIC90 (E. faecalis TRE2 [10]),MBIC90 (E. faecalis WW6 [11]),MBIC90 (S. aureus DSM 1104 [12]),other results
"CC(C)C[C@@H]1NC(=O)[C@H](CCCN)NC(=O)[C@H](C(C)C)NC(=O)[C@@H]2CCCN2C(=O)[C@@H](Cc2ccccc2)NC(=O)[C@H](CC(C)C)NC(=O)[C@H](CCCN)NC(=O)[C@H](C(C)C)NC(=O)[C@@H]2CCCN2C(=O)[C@@H](Cc2ccccc2)NC1=O [GS, gramicidin S] (cyclo(V[Orn]L[dF]PV[Orn]L[dF]P))",4 (4) µg/ml,4 (4) µg/ml,4 (4) µg/ml,8 (7) µg/ml,16 (14) µg/ml,16 (14) µg/ml,16 (14) µg/ml,8 (7) µg/ml,16 (14) µg/ml,16 (14) µg/ml,16 (14) µg/ml,16 (14) µg/ml,8 (7) µg/ml,8 (7) µg/ml,8 (7) µg/ml,14 µM,7 µM,14 µM,14 µM,4 µM,"MIC (S. aureus MRSA538 SCV): 8 (7) µg/ml; MBC (S. aureus DSM 1104 SCV [4]): 8 (7) µg/ml; MBIC90 (S. aureus MRSA8 SCV [13]): 4 µM; Bound HSA ([14]; Chiralpak-HSA column, 50 mM ammonium acetate pH 7.4, 0–35% 2-propanol gradient, calibrated retention times, UV): 97.45%; log k HSA ([14]; Chiralpak-HSA column, pH 7.4, 0–35% 2-propanol gradient, value in parentheses): 1.44; Bound AGP ([15]; Chiralpak-AGP column, 50 mM ammonium acetate pH 7.4, 0–35% 2-propanol gradient, calibrated retention times, UV): 92.92%; log k AGP ([15]; Chiralpak-AGP column, pH 7.4, 0–35% 2-propanol gradient, value in parentheses): 1.06; chromatographic logD (physchem; pH 2.6): 1.5; chromatographic logD (physchem; pH 7.4): 3.51; chromatographic logD (physchem; pH 10.5): 7.52; 1h LD50 (Danio rerio embryos): 8 µg/mL; 3h LD50 (Danio rerio embryos): 5 µg/mL; Haemolysis at 5 μM (human erythrocytes): 7%; Haemolysis at 10 μM (human erythrocytes): 54%; MIC against enterococci (enterococci): approximately 8 µg/ml; Degradation by protease (subtilisin): effective in degrading"
"Cc1onc(-c2ccccc2)c1C(=O)N[C@@H]1C(=O)N2[C@@H]1SC(C)(C)[C@@H]2C(=O)O [OXA, oxacillin]",–,–,–,–,–,–,–,–,–,–,–,–,–,–,–,–,–,–,–,–,"Concentration effective against the planktonic cells (SI Table S1) (S. aureus DSM 1104 SCV [1]; DSM 1104 SCV planktonic cells, standard broth microdilution): 0.25 µg/mL; Biofilm regrowth after treatment [16]: tolerant"
"FVQWFSKFLGRIL-NH2 [TL, temporin L]",8 (5) µg/ml,8 (5) µg/ml,8 (5) µg/ml,16 (10) µg/ml,32 (20) µg/ml,32 (20) µg/ml,32 (20) µg/ml,16 (10) µg/ml,32 (20) µg/ml,32 (20) µg/ml,32 (20) µg/ml,32 (20) µg/ml,32 (20) µg/ml,16 (10) µg/ml,16 (10) µg/ml,20 µM,39 µM,78 µM,78 µM,5 µM,MBIC90 (S. aureus MRSA8 SCV [13]): 5 µM; log k HSA ([14]; pH 7.4): 1.68; log k AGP ([15]; pH 7.4): 1.23; chromatographic logD (physchem; pH 2.6): 0.65; chromatographic logD (physchem; pH 7.4): 2.92; chromatographic logD (physchem; pH 10.5): 4.95; 1h LD50 (Danio rerio embryos): 7 µg/mL; 3h LD50 (Danio rerio embryos): 7 µg/mL; Haemolysis at 5 μM (human erythrocytes): 57%; Haemolysis at 10 μM (human erythrocytes): 99%
